Reference: patent publication US20220088016A1, “CANCER TREATMENT USING MULTI-TARGETED KINASE INHIBITOR IN COMBINATION OF PROTEIN KINASE BIOMARKERS” (ZHEJIANG CROWNMAB BIOTECH CO. LTD., priority 2019, published 2022)
Values joined by “and” are separate entries in the source; they are usually repeats but may differ in a detail not shown here. Identical values can stand only once.

Assays:
AKT1 = AKT1 (Homo sapiens, UniProt P31749); assay: Kinase profiling; assay type: binding; conditions: read-out: % Ctrl @ 1000 nM
BMX = BMX (Homo sapiens, UniProt P51813); assay: Kinase profiling; assay type: binding; conditions: read-out: % Ctrl @ 1000 nM
CDC2L2 = CDC2L2 (Homo sapiens, UniProt Q9UQ88); assay: Kinase profiling; assay type: binding; conditions: read-out: % Ctrl @ 1000 nM
CSF1R-autoinhibited = CSF1R-autoinhibited (Homo sapiens, UniProt P07333); assay: Kinase profiling; assay type: binding; conditions: read-out: % Ctrl @ 1000 nM
CSNK1A1L = CSNK1A1L (Homo sapiens, UniProt Q8N752); assay: Kinase profiling; assay type: binding; conditions: read-out: % Ctrl @ 1000 nM
Sequence of CSNK1A1L (Q8N752 whole entry): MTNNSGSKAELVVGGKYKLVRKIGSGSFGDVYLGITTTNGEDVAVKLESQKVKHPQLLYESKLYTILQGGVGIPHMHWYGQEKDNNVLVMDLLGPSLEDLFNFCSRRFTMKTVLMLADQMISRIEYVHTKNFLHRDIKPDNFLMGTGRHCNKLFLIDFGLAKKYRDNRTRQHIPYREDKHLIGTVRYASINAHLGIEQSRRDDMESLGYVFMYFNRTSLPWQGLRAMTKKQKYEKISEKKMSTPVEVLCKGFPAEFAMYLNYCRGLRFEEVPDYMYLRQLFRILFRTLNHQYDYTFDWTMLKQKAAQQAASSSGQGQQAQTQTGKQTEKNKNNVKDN

CSNK1G2 = CSNK1G2 (Homo sapiens, UniProt P78368); assay: Kinase profiling; assay type: binding; conditions: read-out: % Ctrl @ 1000 nM
CSNK1G3 = CSNK1G3 (Homo sapiens, UniProt Q9Y6M4); assay: Kinase profiling; assay type: binding; conditions: read-out: % Ctrl @ 1000 nM
Sequence of CSNK1G3 (Q9Y6M4 whole entry): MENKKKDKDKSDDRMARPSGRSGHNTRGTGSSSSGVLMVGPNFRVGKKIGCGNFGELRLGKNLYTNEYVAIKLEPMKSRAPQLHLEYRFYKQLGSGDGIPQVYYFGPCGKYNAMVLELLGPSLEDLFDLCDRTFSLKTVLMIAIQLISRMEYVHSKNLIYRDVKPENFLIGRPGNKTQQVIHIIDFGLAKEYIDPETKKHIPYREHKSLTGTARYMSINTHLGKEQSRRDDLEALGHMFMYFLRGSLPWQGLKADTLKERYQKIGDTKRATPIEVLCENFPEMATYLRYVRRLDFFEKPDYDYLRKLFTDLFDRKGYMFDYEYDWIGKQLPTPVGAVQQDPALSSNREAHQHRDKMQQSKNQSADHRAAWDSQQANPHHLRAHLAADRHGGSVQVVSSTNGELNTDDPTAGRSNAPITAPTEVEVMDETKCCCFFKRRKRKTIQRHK

DAPK1 = DAPK1 (Homo sapiens, UniProt P53355); assay: Kinase profiling; assay type: binding; conditions: read-out: % Ctrl @ 1000 nM
DRAK1 = DRAK1 (Homo sapiens, UniProt Q9UEE5); assay: Kinase profiling; assay type: binding; conditions: read-out: % Ctrl @ 1000 nM
Sequence of DRAK1 (Q9UEE5 whole entry): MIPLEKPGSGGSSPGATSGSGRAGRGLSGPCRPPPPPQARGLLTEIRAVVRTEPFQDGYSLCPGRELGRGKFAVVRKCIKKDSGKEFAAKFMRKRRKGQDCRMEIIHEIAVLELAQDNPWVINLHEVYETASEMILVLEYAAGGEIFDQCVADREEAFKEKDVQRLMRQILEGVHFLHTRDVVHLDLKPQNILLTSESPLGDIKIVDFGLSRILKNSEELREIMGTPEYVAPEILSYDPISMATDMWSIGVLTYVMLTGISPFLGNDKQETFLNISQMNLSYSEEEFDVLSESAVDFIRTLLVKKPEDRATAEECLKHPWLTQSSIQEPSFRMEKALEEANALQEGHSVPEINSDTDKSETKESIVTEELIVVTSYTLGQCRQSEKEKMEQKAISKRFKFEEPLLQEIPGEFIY

DYRK1A = DYRK1A (Homo sapiens, UniProt Q13627); assay: Kinase profiling; assay type: binding; conditions: read-out: % Ctrl @ 1000 nM
ERBB4 = ERBB4 (Homo sapiens, UniProt Q15303); assay: Kinase profiling; assay type: binding; conditions: read-out: % Ctrl @ 1000 nM
FES = FES (Homo sapiens, UniProt P07332); assay: Kinase profiling; assay type: binding; conditions: read-out: % Ctrl @ 1000 nM
FYN = FYN (Homo sapiens, UniProt P06241); assay: Kinase profiling; assay type: binding; conditions: read-out: % Ctrl @ 1000 nM
GAK = GAK (Homo sapiens, UniProt O14976); assay: Kinase profiling; assay type: binding; conditions: read-out: % Ctrl @ 1000 nM
GRK2 = GRK2 (Homo sapiens, UniProt P25098); assay: Kinase profiling; assay type: binding; conditions: read-out: % Ctrl @ 1000 nM
HUNK = HUNK (Homo sapiens, UniProt P57058); assay: Kinase profiling; assay type: binding; conditions: read-out: % Ctrl @ 1000 nM
[1] = biological target: JAK1 (JH2domain-pseudokinase) (Homo sapiens, UniProt P23458); assay: Kinase profiling; assay type: binding; conditions: read-out: % Ctrl @ 1000 nM
[2] = biological target: JAK3 (JH1domain-catalytic) (Homo sapiens, UniProt P52333); assay: Kinase profiling; assay type: binding; conditions: read-out: % Ctrl @ 1000 nM
KIT (V559D, T670I) = KIT (V559D, T670I) (Homo sapiens, UniProt P10721, T670I/V559D); assay: Kinase profiling; assay type: binding; conditions: read-out: % Ctrl @ 1000 nM
Sequence of KIT (V559D, T670I) (P10721 26-976 V559D/T670I): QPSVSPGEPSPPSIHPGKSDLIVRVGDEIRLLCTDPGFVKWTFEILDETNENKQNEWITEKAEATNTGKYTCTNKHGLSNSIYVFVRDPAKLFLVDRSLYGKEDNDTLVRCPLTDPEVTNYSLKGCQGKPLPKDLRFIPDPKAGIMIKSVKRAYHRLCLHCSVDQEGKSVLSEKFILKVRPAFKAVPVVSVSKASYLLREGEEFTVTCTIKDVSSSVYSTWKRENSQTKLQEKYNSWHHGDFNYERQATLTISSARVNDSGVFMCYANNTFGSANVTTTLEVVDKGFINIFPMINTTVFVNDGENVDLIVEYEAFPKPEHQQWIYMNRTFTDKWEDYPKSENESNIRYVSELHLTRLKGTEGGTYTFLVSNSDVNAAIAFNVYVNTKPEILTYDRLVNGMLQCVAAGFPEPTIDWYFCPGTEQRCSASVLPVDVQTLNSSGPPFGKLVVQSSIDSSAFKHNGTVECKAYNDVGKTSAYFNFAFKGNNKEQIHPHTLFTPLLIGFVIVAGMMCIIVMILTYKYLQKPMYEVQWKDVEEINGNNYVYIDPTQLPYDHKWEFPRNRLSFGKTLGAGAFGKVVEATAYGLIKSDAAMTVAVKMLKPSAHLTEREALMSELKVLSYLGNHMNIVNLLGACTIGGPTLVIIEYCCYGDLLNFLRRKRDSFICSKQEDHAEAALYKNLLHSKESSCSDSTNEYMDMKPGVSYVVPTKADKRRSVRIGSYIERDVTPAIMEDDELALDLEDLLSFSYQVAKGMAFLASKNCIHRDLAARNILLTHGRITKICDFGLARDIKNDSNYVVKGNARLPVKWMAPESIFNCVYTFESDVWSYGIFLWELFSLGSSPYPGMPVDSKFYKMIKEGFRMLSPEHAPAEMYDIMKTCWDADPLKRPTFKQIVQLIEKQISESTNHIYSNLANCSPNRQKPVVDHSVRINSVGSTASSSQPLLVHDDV

LATS1 = LATS1 (Homo sapiens, UniProt O95835); assay: Kinase profiling; assay type: binding; conditions: read-out: % Ctrl @ 1000 nM
LIMK2 = LIMK2 (Homo sapiens, UniProt P53671); assay: Kinase profiling; assay type: binding; conditions: read-out: % Ctrl @ 1000 nM
MEK6 = biological target: T1, MEK6 (Homo sapiens, UniProt P52564); assay: Kinase profiling; assay type: binding; conditions: read-out: % Ctrl @ 1000 nM
T1 construct: T7 phage fusion (stated for most kinases of the panel only); made in house; host or cells: T7 phage in E. coli (BL21-derived) or HEK-293 cells
T1 sequence (P52564 whole entry, the tested form may be a part): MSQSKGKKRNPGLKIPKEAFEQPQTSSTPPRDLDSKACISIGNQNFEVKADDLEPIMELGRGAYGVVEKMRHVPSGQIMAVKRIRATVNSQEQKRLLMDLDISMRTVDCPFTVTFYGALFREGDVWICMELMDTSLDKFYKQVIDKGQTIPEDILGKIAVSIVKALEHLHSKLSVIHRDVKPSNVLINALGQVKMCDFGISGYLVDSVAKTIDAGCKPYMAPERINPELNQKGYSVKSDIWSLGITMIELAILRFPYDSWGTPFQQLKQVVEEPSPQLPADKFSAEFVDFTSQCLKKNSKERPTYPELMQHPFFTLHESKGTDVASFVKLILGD

PIK3CA (E545A) = PIK3CA (E545A) (Homo sapiens, UniProt P42336, E545A); assay: Kinase profiling; assay type: binding; conditions: read-out: % Ctrl @ 1000 nM
Sequence of PIK3CA (E545A) (P42336 whole entry E545A): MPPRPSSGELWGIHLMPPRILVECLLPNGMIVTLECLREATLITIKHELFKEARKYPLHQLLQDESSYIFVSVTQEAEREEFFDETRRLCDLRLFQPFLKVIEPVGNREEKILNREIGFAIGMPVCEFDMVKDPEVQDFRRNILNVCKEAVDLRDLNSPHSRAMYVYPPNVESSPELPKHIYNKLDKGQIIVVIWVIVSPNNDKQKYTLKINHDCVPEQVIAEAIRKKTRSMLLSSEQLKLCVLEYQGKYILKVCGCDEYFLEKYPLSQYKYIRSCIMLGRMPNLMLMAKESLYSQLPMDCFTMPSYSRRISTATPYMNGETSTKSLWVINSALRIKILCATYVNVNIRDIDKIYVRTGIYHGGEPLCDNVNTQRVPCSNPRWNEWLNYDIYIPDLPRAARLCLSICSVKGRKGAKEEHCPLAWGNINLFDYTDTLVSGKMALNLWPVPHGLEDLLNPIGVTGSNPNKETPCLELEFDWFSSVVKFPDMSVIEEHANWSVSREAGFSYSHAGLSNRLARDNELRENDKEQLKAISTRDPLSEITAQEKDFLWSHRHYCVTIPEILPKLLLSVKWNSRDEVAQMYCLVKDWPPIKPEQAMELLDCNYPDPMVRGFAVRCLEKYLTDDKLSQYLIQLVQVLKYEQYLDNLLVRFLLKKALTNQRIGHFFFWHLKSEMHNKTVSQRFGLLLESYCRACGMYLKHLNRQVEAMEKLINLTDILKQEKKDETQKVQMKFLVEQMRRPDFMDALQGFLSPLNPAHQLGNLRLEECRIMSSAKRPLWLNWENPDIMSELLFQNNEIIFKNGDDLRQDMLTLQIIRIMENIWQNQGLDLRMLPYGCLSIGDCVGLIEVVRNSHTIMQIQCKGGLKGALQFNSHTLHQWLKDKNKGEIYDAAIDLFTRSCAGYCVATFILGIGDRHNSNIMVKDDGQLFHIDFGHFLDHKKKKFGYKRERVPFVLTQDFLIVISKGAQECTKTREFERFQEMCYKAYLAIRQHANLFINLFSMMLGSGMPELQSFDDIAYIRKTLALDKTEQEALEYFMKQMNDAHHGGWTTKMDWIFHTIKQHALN

PIK3CD = PIK3CD (Homo sapiens, UniProt O00329); assay: Kinase profiling; assay type: binding; conditions: read-out: % Ctrl @ 1000 nM
Sequence of PIK3CD (O00329 whole entry): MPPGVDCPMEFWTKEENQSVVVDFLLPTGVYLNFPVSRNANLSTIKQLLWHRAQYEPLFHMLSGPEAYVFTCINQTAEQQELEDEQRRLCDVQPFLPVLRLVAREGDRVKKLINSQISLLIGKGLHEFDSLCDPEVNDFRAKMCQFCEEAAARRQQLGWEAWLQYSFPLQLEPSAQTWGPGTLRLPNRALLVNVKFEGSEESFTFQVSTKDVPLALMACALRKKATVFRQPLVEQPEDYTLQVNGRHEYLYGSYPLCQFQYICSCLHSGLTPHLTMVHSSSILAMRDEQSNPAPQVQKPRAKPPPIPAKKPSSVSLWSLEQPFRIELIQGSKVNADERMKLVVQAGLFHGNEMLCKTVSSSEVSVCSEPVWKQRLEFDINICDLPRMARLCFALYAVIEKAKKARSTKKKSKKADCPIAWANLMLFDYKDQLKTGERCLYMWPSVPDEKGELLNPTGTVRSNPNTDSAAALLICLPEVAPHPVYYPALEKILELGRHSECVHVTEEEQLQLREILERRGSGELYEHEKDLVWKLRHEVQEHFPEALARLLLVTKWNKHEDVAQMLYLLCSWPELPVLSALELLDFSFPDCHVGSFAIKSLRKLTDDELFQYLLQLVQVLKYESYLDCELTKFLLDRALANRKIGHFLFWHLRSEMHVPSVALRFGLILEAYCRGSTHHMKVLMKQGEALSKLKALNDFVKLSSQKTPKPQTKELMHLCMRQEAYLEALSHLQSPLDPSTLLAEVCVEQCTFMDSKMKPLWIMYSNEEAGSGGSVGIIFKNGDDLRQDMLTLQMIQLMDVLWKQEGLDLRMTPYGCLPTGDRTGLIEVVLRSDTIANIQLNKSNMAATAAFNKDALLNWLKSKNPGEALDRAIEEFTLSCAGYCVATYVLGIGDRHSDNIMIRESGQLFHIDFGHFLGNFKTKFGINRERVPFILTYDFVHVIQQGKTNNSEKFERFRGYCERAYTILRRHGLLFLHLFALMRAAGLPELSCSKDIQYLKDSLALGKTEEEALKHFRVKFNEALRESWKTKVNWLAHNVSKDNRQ

PIK3CG = PIK3CG (Homo sapiens, UniProt P48736); assay: Kinase profiling; assay type: binding; conditions: read-out: % Ctrl @ 1000 nM
PIP5K1C = PIP5K1C (Homo sapiens, UniProt O60331); assay: Kinase profiling; assay type: binding; conditions: read-out: % Ctrl @ 1000 nM
RET (V804L) = RET (V804L) (Homo sapiens, UniProt P07949, V804L); assay: Kinase profiling; assay type: binding; conditions: read-out: % Ctrl @ 1000 nM
RIOK3 = RIOK3 (Homo sapiens, UniProt O14730); assay: Kinase profiling; assay type: binding; conditions: read-out: % Ctrl @ 1000 nM
ROS1 = ROS1 (Homo sapiens, UniProt P08922); assay: Kinase profiling; assay type: binding; conditions: read-out: % Ctrl @ 1000 nM
SRPK2 = SRPK2 (Homo sapiens, UniProt P78362); assay: Kinase profiling; assay type: binding; conditions: read-out: % Ctrl @ 1000 nM
TAOK3 = TAOK3 (Homo sapiens, UniProt Q9H2K8); assay: Kinase profiling; assay type: binding; conditions: read-out: % Ctrl @ 1000 nM
TNNI3K = TNNI3K (Homo sapiens, UniProt Q59H18); assay: Kinase profiling; assay type: binding; conditions: read-out: % Ctrl @ 1000 nM
ULK3 = ULK3 (Homo sapiens, UniProt Q6PHR2); assay: Kinase profiling; assay type: binding; conditions: read-out: % Ctrl @ 1000 nM
WNK1 = WNK1 (Homo sapiens, UniProt Q9H4A3); assay: Kinase profiling; assay type: binding; conditions: read-out: % Ctrl @ 1000 nM
YANK1 = YANK1 (Homo sapiens, UniProt Q8WU08); assay: Kinase profiling; assay type: binding; conditions: read-out: % Ctrl @ 1000 nM
Sequence of YANK1 (Q8WU08 whole entry): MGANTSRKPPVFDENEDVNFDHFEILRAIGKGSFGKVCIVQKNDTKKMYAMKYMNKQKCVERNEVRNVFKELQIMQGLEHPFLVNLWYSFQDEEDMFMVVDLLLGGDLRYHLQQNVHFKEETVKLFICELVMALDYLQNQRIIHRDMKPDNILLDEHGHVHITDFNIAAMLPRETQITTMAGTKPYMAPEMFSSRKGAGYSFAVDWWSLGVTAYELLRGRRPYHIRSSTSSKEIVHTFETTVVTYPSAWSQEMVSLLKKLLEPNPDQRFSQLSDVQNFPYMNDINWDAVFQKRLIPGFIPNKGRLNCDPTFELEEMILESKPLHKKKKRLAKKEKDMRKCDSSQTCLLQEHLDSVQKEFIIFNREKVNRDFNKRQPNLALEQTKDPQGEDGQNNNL

MC-38 tumor = assay: Subcutaneous MC-38 murine colon cancer model; assay type: in vivo, mouse; conditions: 20 mg/kg first 11 days, then 10 mg/kg
Experimental: The MC-38 tumor cells were maintained in vitro with RPMI1640 medium supplemented with 10% fetal bovine serum at 37° C. in an atmosphere of 5% CO2 in air. Each mouse was inoculated subcutaneously after shaving at the right flank region with MC-38 tumor cells (1×10e6) in 0.1 mL of PBS for tumor development. The randomization started when the mean tumor size reached approximately 100 mm^3. Group 1 mice were treated vehicle and group 2 mice were treated 20 mg/kg CBT-102 at first 11 days and reduced to 10 mg/kg afterwards.

SMILES: Cc1cc(Oc2cc(NC(=O)C3CC3)ncn2)ccc1NC(=O)Nc1ccc(Cl)c(C(F)(F)F)c1 [CBT-102]
- remaining activity at 1 µM (AKT1): 100%
- remaining activity at 1 µM (BMX): 90%
- remaining activity at 1 µM (CDC2L2): 22%
- remaining activity at 1 µM (CSF1R-autoinhibited): 60%
- remaining activity at 1 µM (CSNK1A1L): 100%
- remaining activity at 1 µM (CSNK1G2): 94%
- remaining activity at 1 µM (CSNK1G3): 96%
- remaining activity at 1 µM (DAPK1): 98%
- remaining activity at 1 µM (DRAK1): 100%
- remaining activity at 1 µM (DYRK1A): 97%
- remaining activity at 1 µM (ERBB4): 100%
- remaining activity at 1 µM (FES): 68%
- remaining activity at 1 µM (FYN): 76%
- remaining activity at 1 µM (GAK): 100%
- remaining activity at 1 µM (GRK2): 100%
- remaining activity at 1 µM (HUNK): 68%
- remaining activity at 1 µM [1]: 100%
- remaining activity at 1 µM [2]: 82%
- remaining activity at 1 µM (KIT (V559D, T670I)): 0.3%
- remaining activity at 1 µM (LATS1): 80%
- remaining activity at 1 µM (LIMK2): 92%
- remaining activity at 1 µM (MEK6): 96%
- remaining activity at 1 µM (PIK3CA (E545A)): 100%
- remaining activity at 1 µM (PIK3CD): 100%
- remaining activity at 1 µM (PIK3CG): 100%
- remaining activity at 1 µM (PIP5K1C): 93%
- remaining activity at 1 µM (RET (V804L)): 42%
- remaining activity at 1 µM (RIOK3): 65%
- remaining activity at 1 µM (ROS1): 63%
- remaining activity at 1 µM (SRPK2): 100%
- remaining activity at 1 µM (TAOK3): 9.6%
- remaining activity at 1 µM (TNNI3K): 31%
- remaining activity at 1 µM (ULK3): 88%
- remaining activity at 1 µM (WNK1): 87%
- remaining activity at 1 µM (YANK1): 98%
- Tumor Size on day34 (MC-38 tumor; Day34 (PG-D21)): 454.63 mm^3 and 454.63 ± 60.72 mm^3
- T/C (MC-38 tumor; day34): 20.09%
- TGI (MC-38 tumor; day34, vs vehicle): 79.91%
